# System: A. fumigatus IDO mutants
# Assay: growth inhibition test against A. fumigatus IDO mutants
# Format: cell-based
# Conditions: tested against A. fumigatus IDO mutants
# Text: In addition to re-purposing duplicated primary metabolism genes to have a biosynthetic role, fungi also utilize duplicated genes from primary metabolism as a form of self-resistance (Refs. A34, A35; incorporated by reference in their entireties). This Type II repurposing represents a particularly attractive avenue for drug discovery, as the duplicated gene will often provide insight into the mechanism of action of the encoded secondary metabolite. Several examples of such Type II repurposing have been discovered by targeting clusters with duplicate resistance targets. The proteasome inhibitor fellutamide B, for example, was discovered due to the presence of a duplicated proteasome subunit within its BGC (36). Similarly, the BGC encoding the methionine aminopeptidase inhibitor fumagillin contains both type I and type II methionine aminopeptidase genes in the gene cluster (FIG. 10) (Ref. A37; incorporated by reference in its entirety). While it is likely that many of the IDOs contained within the BGCs depicted in FIGS. 8 and 9 represent Type I biosynthetic enzymes that provide kynurenine for secondary metabolite synthesis, it is also possible that they represent Type II duplicated gene targets that serve to protect the producing organism against the biosynthetic product. […]
smiles,measurement,value
"Nc1ccccc1C(=O)NC1CC(=O)c2ccccc2NC1=O (stereo not shown) [terreazepine, 2-amino-N-(2,3,4,5-tetrahydro-2,5-dioxo-1H-1-benzazepin-3-yl)benzamide]",growth inhibitory activity,no growth inhibitory activity was observed
